Measured values as given in patent US20210284621A1 (priority 2018, published 2021).
Where two headings read alike, the source gives them in different places.

Tests used:
CB1 receptor [1] = molecular target: T1, CB1 receptor (Homo sapiens, UniProt P21554); assay: cAMP Assay #2: Hit Hunter cAMP assay, Gi-coupled agonist activity, CB1; type: cell-based; design: host or cells: PathHunter cell lines
CB2 receptor [2] = molecular target: T2, CB2 receptor (Homo sapiens, UniProt P34972); assay: cAMP Assay #1: CB2 adenylylcyclase assay in CHO cells; type: cell-based; design: expressed in transfected cells; host or cells: CHO cells
T2 sequence (P34972 whole entry): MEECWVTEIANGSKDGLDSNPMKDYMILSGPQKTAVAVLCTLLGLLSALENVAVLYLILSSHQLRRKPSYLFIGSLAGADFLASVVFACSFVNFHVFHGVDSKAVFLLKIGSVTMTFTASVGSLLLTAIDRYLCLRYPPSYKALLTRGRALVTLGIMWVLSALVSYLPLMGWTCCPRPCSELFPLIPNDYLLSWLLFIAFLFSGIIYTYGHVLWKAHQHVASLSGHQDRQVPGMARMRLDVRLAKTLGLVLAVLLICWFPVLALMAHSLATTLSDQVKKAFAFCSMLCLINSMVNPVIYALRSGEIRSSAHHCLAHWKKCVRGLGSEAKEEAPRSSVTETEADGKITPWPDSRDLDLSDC
Description: Compounds of the invention were assayed in an adenylylcyclase assay to determine agonist activity on the CB1 and CB2 receptors, the results of which are provided in Table 4. Exemplary methods for the adenylylcyclase assay can be found in the literature, for example, in Rhee, M-H., et al. Cannabinol Derivatives: Binding to Cannabinoid Receptors and Inhibition of Adenylylcyclase. J Med Chem. 40: 3228-3233 (1997).
CB2 Activity as determined by Adenylylcyclase Assay: CB2 receptor agonist activity was measured by measuring cAMP production. A compound of the invention was incubated with CHO cells expressing human recombinant CB2 for 10 minutes at 37° C.
Determination of EC50 values: The EC50 values (concentration producing a half-maximal response) were determined by non-linear regression analysis of the concentration-response curves generated with mean replicate values using Hill equation curve fitting: Y=D+[(A−D)/(1+(C/C50)^nH)], where Y=response, A=left asymptote of the curve, D=right asymptote of the curve, C=compound concentration, and C50=EC50, and nH=slope factor. This analysis was performed using software developed at Cerep (Hill software) and validated by comparison with data generated by the commercial software SigmaPlot® 4.0 for Windows® (© 1997 by SPSS Inc.).

CB1 receptor [3] = molecular target: T1, CB1 receptor; assay: CB1 competitive radioligand binding assay ([3H] SR141716A); design: expressed in transfected cells; host or cells: Chem-1 cells; conditions: for inhibition at 0.5 µM: 0.5 μM compound, 2.0 nM [3H] SR141716A, 90 min 37° C.
How it was run: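 Chem-1 cells expressing human recombinant CB1 incubated 90 min at 37° C with 2.0 nM [3H]SR141716A and compound at 0.5 μM (1% DMSO) in HEPES pH 7.4 buffer with MgCl2, CaCl2, 0.2% BSA. Read-out is % inhibition of radioligand binding.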

CB2 receptor [4] = molecular target: T2, CB2 receptor; assay: CB2 competitive radioligand binding assay ([3H] WIN-55,212-2); design: expressed in transfected cells; host or cells: CHO-K1 cells; conditions: for inhibition at 0.05 µM: 0.05 μM compound, 2.4 nM [3H] WIN-55,212-2, 90 min 37° C.; for Fold Selectivity (CB1/CB2): Table 2, ratio of Ki CB1/CB2
How it was run: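 Single-concentration displacement: 2.4 nM [3H]WIN-55,212-2 competed with 0.05 μM compound (1% DMSO) for 90 min at 37 °C on human CB2 expressed in CHO-K1 cells (HEPES 20 mM, pH 7.0, 0.5% BSA). Result given as % inhibition of bound radioligand.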

[5] = Hit Hunter cAMP, 20 μM forskolin, control ligand CP55,940, read-out: CB1, EC50
[6] = CHO cells, 10 min 37° C., relative to 100 nM WIN 55212-2, read-out: CB2 Activity EC50 (cAMP)
[7] = Table 2, read-out: CB1 Binding Ki
[8] = Table 2, read-out: CB2 Binding Ki

T1 sequence (P21554 whole entry): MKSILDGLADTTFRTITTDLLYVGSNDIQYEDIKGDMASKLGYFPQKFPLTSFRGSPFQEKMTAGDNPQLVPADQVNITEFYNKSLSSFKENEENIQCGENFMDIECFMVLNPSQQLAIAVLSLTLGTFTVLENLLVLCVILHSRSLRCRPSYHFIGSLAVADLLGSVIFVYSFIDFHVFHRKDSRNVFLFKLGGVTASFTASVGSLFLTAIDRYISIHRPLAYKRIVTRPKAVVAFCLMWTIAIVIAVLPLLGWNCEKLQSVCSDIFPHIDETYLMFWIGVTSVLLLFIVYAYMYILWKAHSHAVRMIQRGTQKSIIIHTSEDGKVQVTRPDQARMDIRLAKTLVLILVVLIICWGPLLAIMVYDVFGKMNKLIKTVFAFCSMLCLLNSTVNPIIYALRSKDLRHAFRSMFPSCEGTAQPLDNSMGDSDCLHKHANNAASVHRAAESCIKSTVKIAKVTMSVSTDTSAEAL

Question: Which EC50 (CB1 receptor [1]) does the source give for CCCCCCC(C)(C)c1cc(O)c2c(c1)OC(C)(C)[C@@H]1CC=C(C(=O)O)C[C@@H]21 [AJA, (6aR,10aR)-1-hydroxy-6,6-dimethyl-3-(2-methyl-2-octanyl)-6a,7,10,10a-tetrahydro-6H-benzo[c]chromene-9-carboxylic acid, reference compound] here?
Answer: The EC50 was 77.1 nM.

Question: And the EC50 (CB2 receptor [2])?
Answer: Its EC50 is 21 nM.

Question: What about the Ki (CB1 receptor [3]) of the same compound?
Answer: Its Ki is over 3000 nM.

Question: And the inhibition at 0.5 µM (CB1 receptor [3])?
Answer: The inhibition at 0.5 µM was -1%.

Question: And the Ki (CB2 receptor [4])?
Answer: The Ki was 633 nM.

Question: And the inhibition at 0.05 µM (CB2 receptor [4])?
Answer: The inhibition at 0.05 µM was 0%.

Question: Which EC50 (CB1 receptor [1]; [5]) does the source give for CCCCCCC(C)(C)c1cc(O)c2c(c1)OC(C)(C)[C@@H]1CC=C(C(=O)NC(C)(C)CCO)C[C@@H]21 [Compound 15, (6aR,10aR)-1-Hydroxy-N-(4-hydroxy-2-methylbutan-2-yl)-6,6-dimethyl-3-(2-methyloctan-2-yl)-6a,7,10,10a-tetrahydro-6H-benzo[c]chromene-9-carboxamide] here?
Answer: Its EC50 is 448 nM.

Question: And the EC50 (CB2 receptor [2]; [6])?
Answer: The EC50 was 7.5 nM.

Question: And the inhibition at 0.5 µM (CB1 receptor [3])?
Answer: Its inhibition at 0.5 µM is 16%.

Question: What about the Ki (CB1 receptor [3]; [7]) of the same compound?
Answer: The Ki was 660 nM.

Question: And the inhibition at 0.05 µM (CB2 receptor [4])?
Answer: The inhibition at 0.05 µM was 54%.

Question: What about the “Fold Selectivity (CB1/CB2)” value (CB2 receptor [4]) of the same compound?
Answer: The value was 18.3.

Question: What about the Ki (CB2 receptor [4]; [8]) of the same compound?
Answer: Its Ki is 36 nM.

Question: What does the source list for CCCCCCC(C)(C)c1cc(O)c2c(c1)OC(C)(C)[C@@H]1CC=C(C(=O)NC(CO)CO)C[C@@H]21 [Compound 25, (6aR,10aR)-N-(1,3-Dihydroxypropan-2-yl)-1-hydroxy-6,6-dimethyl-3-(2-methyloctan-2-yl)-6a,7,10,10a-tetrahydro-6H-benzo[c]chromene-9-carboxamide]?
Answer: EC50 (CB1 receptor [1]; [5]): 360 nM; EC50 (CB2 receptor [2]; [6]): 11 nM; inhibition at 0.5 µM (CB1 receptor [3]): 29%; Ki (CB1 receptor [3]; [7]): 316 nM; inhibition at 0.05 µM (CB2 receptor [4]): 36%; Fold Selectivity (CB1/CB2) (CB2 receptor [4]): 4.33; Ki (CB2 receptor [4]; [8]): 73 nM

Question: Which EC50 (CB1 receptor [1]) does the source give for CCCCCCC(C)(C)c1cc(O)c2c(c1)OC(C)(C)[C@@H]1CC=C(C(=O)OC(C)C)C[C@@H]21 [Compound 29, Isopropyl (6aR,10aR)-1-hydroxy-6,6-dimethyl-3-(2-methyloctan-2-yl)-6a,7,10,10a-tetrahydro-6H-benzo[c]chromene-9-carboxylate] here?
Answer: The EC50 was 9.6 nM.

Question: And the EC50 (CB2 receptor [2])?
Answer: The EC50 was 2.3 nM.

Question: What about the inhibition at 0.5 µM (CB1 receptor [3]) of the same compound?
Answer: Its inhibition at 0.5 µM is 65%.

Question: What about the inhibition at 0.05 µM (CB2 receptor [4]) of the same compound?
Answer: The inhibition at 0.05 µM was 79%.

Question: CCCCCCC(C)(C)c1cc(O)c2c(c1)OC(C)(C)[C@@H]1CC=C(C(=O)NC[C@@H](O)CO)C[C@@H]21 [Compound 55, (6aR,10aR)-N—((R)-2,3-Dihydroxypropyl)-1-hydroxy-6,6-dimethyl-3-(2-methyloctan-2-yl)-6a,7,10,10a-tetrahydro-6H-benzo[c]chromene-9-carboxamide] was tested. Which EC50 (CB1 receptor [1]; [5]) did it give?
Answer: The EC50 was 175 nM.

Question: What about the EC50 (CB2 receptor [2]; [6]) of the same compound?
Answer: Its EC50 is 5.2 nM.

Question: And the Ki (CB1 receptor [3]; [7])?
Answer: The Ki was 619 nM.

Question: And the “Fold Selectivity (CB1/CB2)” value (CB2 receptor [4])?
Answer: The value was 19.

Question: And the Ki (CB2 receptor [4]; [8])?
Answer: The Ki was 33 nM.

Question: Which EC50 (CB1 receptor [1]; [5]) does the source give for CCCCCCC(C)(C)c1cc(O)c2c(c1)OC(C)(C)[C@@H]1CC=C(C(=O)NC[C@H](O)CO)C[C@@H]21 [Compound 56, (6aR,10aR)-N—((S)-2,3-Dihydroxypropyl)-1-hydroxy-6,6-dimethyl-3-(2-methyloctan-2-yl)-6a,7,10,10a-tetrahydro-6H-benzo[c]chromene-9-carboxamide] here?
Answer: The EC50 was 250 nM.

Question: And the EC50 (CB2 receptor [2]; [6])?
Answer: Its EC50 is 8.7 nM.

Question: And the Ki (CB1 receptor [3]; [7])?
Answer: The Ki was 708 nM.

Question: What about the “Fold Selectivity (CB1/CB2)” value (CB2 receptor [4]) of the same compound?
Answer: The value was 17.

Question: And the Ki (CB2 receptor [4]; [8])?
Answer: The Ki was 41 nM.
